Marks after values point to notes of the source that are not given here.
Assays:
[1] = Trimethylamine (TMA) reducing effect, SPME-GC/MS; conditions: TMA 100 ppm standard aqueous solution; compositions T1-T6, 50 ppm of each polyphenol
Description: 30% concentration product of trimethylamine was purchased from Duksan Chemistry (Ansan, Republic of Korea) and used in the experiment. To determine the TMA-reducing effect, the standard reagent of 30% trimethylamine was diluted with distilled water to 100 ppm to prepare a standard aqueous solution. The prepared standard aqueous solution was used as a solvent to prepare a test polyphenol composition, and a trimethylamine-containing polyphenol composition sample was prepared and used for GC/MS analysis. The trimethylamine (TMA) component was determined from the polyphenol composition through the following method. […] The amount of TMA in the composition was calculated by comparing the peak area of 1.0 g of the sample and 1 g of 100 mg/L of TMA relative to each other and performing the comparative relative quantification of the contents of volatile aroma components in the sample. To determine the superiority of the combination of chlorogenic acid, caffeic acid, and quinic acid, the TMA reducing effect, which is known to be an effect of polyphenols, was evaluated. Specifically, the trimethylamine (TMA)-reducing effect was evaluated through the method of Experimental example 2 for each polyphenol composition prepared in Experimental example 1-2. […]

[2] = DPPH radical scavenging activity; conditions: 10 minutes reaction, absorbance 517 nm; Table 7
Description: 4 mM of DPPH solution in ethanol was prepared and used after the absorbance was adjusted to 1.000±0.1. 0.2 mL of each sample was added to a test tube, 2.8 mL of DPPH solution was mixed and allowed to react for 10 minutes, and the absorbance was measured at 517 nm by using a microplate reader (M2, Molecular Device, Canada). L-ascorbic acid was used as a positive control. The DPPH radical scavenging activity was calculated from the following formula: DPPH radical scavenging activity (%)=[1−(A/B)]×100 • (A: absorbance of a group with addition of sample, B: absorbance of a group without addition of sample)

[3] = Oxidation stability of lipid by Rancimat method; conditions: fish oil containing 2% of the polyphenol composition, 100° C., Table 9; for IP (min) induction period: air 20 L/hr; for AI Antioxidative Index: relative to lipid without composition
Description: Oxidation stability of lipid was analyzed by using the Rancimat (743 Metrohm Co., Herisau, Switzerland) method. 2.5 g of fish oil [Sigma-Aldrich Co. (St. Louis. MO, USA)] containing 2% of the polyphenol composition was put into a reaction vessel, and air was put at 20 L/hr into lipid on an aluminum heating block controlled at 100° C. to oxidize lipid. The volatile oxidation products generated during this time were transferred to an absorption vessel containing 60 mL of distilled water, and the degree of anti-oxidation was determined through the induction period automatically calculated in accordance with the change of electrical conductivity. For comparison of antioxidative activity, the Antioxidative Index (AI) was calculated by using a lipid sample with no addition of the polyphenol composition as a control group from the following formula: Further, L-ascorbic acid was used as a positive control. Antioxidative Index (AI)=IG/IC (IG: […])

[4] = test system: polyphenol oxidase (PPO); experiment: Polyphenol oxidase (PPO) inhibitory activity; type: biochemical; conditions: pH 6.5, 25° C., catechin substrate, absorbance 420 nm; Table 11
Description: 1.7 mL of 50 mM phosphate buffer (pH 6.5) and 0.2 mL of PPO (4,276 units/mg) were mixed, and 0.1 mL of each polyphenol composition was added, and the mixture was left in a constant temperature water bath controlled at 25° C. for 15 minutes, and 1 mL of 4 mM catechin solution was added thereto as a substrate, respectively. Then, a change in absorbance for 5 minutes at 420 nm was measured by using a microplate reader (M2, Molecular Device, Canada). The enzyme inhibitory activity was expressed as absorbance reduction (%) represented by the following formula: Inhibition of PPO activity (%)=[1−(A/B)]×100 • [A: absorbance of sample, B: absorbance of blank solution]

Row | Structure (SMILES) | Reduction (%) of trimethylamine (TMA) [1] [%] | DPPH (%) radical scavenging activity [2] | IP (min) induction period [3] | AI Antioxidative Index [3] | PPO (%) inhibition of PPO activity [4]
1 | O=C(O)[C@]1(O)C[C@@H](O)[C@@H](O)[C@H](O)C1 [Composition T3, Quinic acid] | 57.66 | 0.60 ± 1.04^e % | 77.23 ± 1.05^e min | 1.04 ± 0.01^e | 19.47 ± 0.75^c %
2 | O=C1O[C@H]([C@@H](O)CO)C(O)=C1O [(+) control, L-ascorbic acid, reference compound] | – | 81.07 ± 0.59^a % | 90.53 ± 1.37^c min | 1.22 ± 0.03^c | 22.86 ± 0.70^a %
